According to patent US10053423B2, “Radioiodinated compounds” (NUtech Ventures, priority 2014, dated 2018):

Assays:
[1] = Thermal stability to iodine loss during the deprotection reaction; format: physicochemical; details: during the deprotection reaction (6M HCl, 100° C., 10 minutes), compared to MIBG
Protocol: The residue in the reactor vial was dissolved in 200 μl of 6M HCl, and heated at 100° C. for 10 minutes. The solution was allowed to cool for one minute and neutralized with 120 μl of 10M NaOH. A reverse phase (C18) sep pak was rinsed with ethanol (10 mL) and water (10 mL) and blown dry. The neutralized solution ([…]) was passed through the sep pak and the sep pak was rinsed with 2 mL of water (to elute any remaining salts) and blown dry. Ethanol (0.8 mL) was passed through the sep pak to elute the radiolabeled benzylguanidine derivative. Ethanol was removed using a stream of nitrogen before the material was purified by HPLC.
124I-2,4-difluoro-3-iodobenzylguanidine was prepared in 80±6% radiochemical yield (n=4) at the 1-2 mCi scale using the procedure outlined in Example 26. Following isolation, the product was >99% chemically and radiochemically pure, as assayed by HPLC.

[2] = Imaging (PET/CT) and biodistribution study of 124I-MIBG prepared using two methods; format: in vivo; details: male Sprague-Dawley rats, single intravenous dose, PET/CT scans at 1, 4, and 24 hours post injection; diaryliodonium salt precursor preparation vs conventional method (stannylated resin precursor)
Protocol: To determine whether the method of preparation of MIBG affected the biodistribution of the compound, high specific activity ^124I-MIBG was prepared using the diaryliodonium salt method (Example 27) and the conventional stannylated resin precursor; these compounds were imaged in rodent models.
Eight male Sprague-Dawley rats were used for the study. Upon arrival at the laboratory, each animal was inspected, uniquely identified with the animal number written on their tails, and weighed. The animals were judged to be in good health and were immediately placed in acclimation. Animals were between 6-14 weeks of age and weighed 440.5±36.4 g.
After a single intravenous dose of ^124I-MIBG prepared by diaryliodonium salt precursor, or ^124I-MIBG prepared with conventional method, Sprague-Dawley rats were given PET/CT scans at 1, 4, and 24 hours post injection of radiotracer. Biodistribution analysis was performed to quantify the amount of uptake in each animal's heart, liver, kidneys, thyroid, quadriceps muscle, and whole body as a function of time. Data is presented in units of μCi, μCi/mm3, % ID, and % ID/g. The radiochemical purity of all compounds as assessed by HPLC was >97% within an hour of administration.

N=C(N)NCc1ccc(F)c([124I])c1F [124I-2,4-difluoro-3-iodobenzylguanidine, ^124I-2,4-difluoro-3-iodobenzylguanidine]
thermal stability to iodine loss [1]: greater thermal stability to iodine loss

NC(N)=NCc1cccc([124I])c1 [^124I-MIBG]
biodistribution (uptake in heart, liver, kidneys, thyroid, quadriceps muscle, and whole body as a function of time) [2]: no noted qualitative or quantitative difference
